For data set [1], the species on record is Rattus norvegicus. Description: Positive allosteric modulator activity at AMPA receptor in 7 days old Sprague-Dawley rat cerebellar granule neurons assessed as potentiation of kainite-evoked current at 10 uM by whole cell patch clamp technique. A general note: In patch-clamp work, channel activity is measured electrically.
The species entered for data set [2] is Rattus norvegicus. In words: Positive allosteric modulator activity at AMPA receptor in 7 days old Sprague-Dawley rat cerebellar granule neurons assessed as potentiation of 5-Will-evoked current at 10 uM by whole cell patch clamp technique.
A short description of data set [3]: Chemical stability of the compound in water/acetonitrile mobile phase by chromatography. Type of data set: physicochemical. To be noted: buffer.

Structures are written as SMILES.

The text below walks through data of ChEMBL document CHEMBL3351233, “Design, stereoselective synthesis, configurational stability and biological activity of 7-chloro-9-(furan-3-yl)-2,3,3a,4-tetrahydro-1H-benzo[e]pyrrolo[2,1-c][1,2,4]thiadiazine 5,5-dioxide” (Bioorg Med Chem, 2014).

Turning to `O=S1(=O)N[C@H]2CCCN2c2c(-c3ccoc3)cc(Cl)cc21`, the Activity is 12% in the data set listed under Rattus norvegicus [1] and 122% in the data set listed under Rattus norvegicus [2].
The like results for `CC1Nc2ccc(Cl)cc2S(=O)(=O)N1` (stereo not drawn) were, in that order, 8% and 10%.
Take `O=S1(=O)N[C@@H]2CCCN2c2c(-c3ccoc3)cc(Cl)cc21`: the Activity in the data set filed under Rattus norvegicus [1] worked out at 74%; in the data set listed under Rattus norvegicus [2], 245%.
For the molecule `O=S1(=O)NC2CCCN2c2c(-c3ccoc3)cc(Cl)cc21` (racemic), the Activity in the data set filed under Rattus norvegicus [1] came to 30%. Besides, the Stability result in data set [3] is given as “Stable”.
